According to PMC12655526, “Effective Oral Delivery of Teriparatide Using Organoclay—Polymethacrylate Nanocomposites for Osteoporosis Therapy” (Pharmaceutics, 2025):

Key:
pepsin = molecular target: T1, pepsin (Sus scrofa, UniProt P00791); test: Gastrointestinal stability in simulated gastric fluid (SGF); format: in vitro ADME; settings: SGF pH 1.2, 5 μg/mL pepsin, 0.5 mg/mL teriparatide, 37 °C, 100 rpm; CD after release in PBS pH 7.4
T1 construct: purchased Sigma-Aldrich Co. (St Louis, MO, USA)
Protocol: (§1) The conformational integrity of teriparatide encapsulated within nanocomplexes was assessed under simulated gastrointestinal conditions using enzyme-supplemented media. Specifically, samples were incubated in simulated gastric fluid (SGF; pH 1.2, containing 5 μg/mL pepsin) or simulated intestinal fluid (SIF; pH 7.4, supplemented with 20 μg/mL trypsin). Nanoparticles corresponding to 0.5 mg/mL of teriparatide were dispersed in 1 mL of either SGF or SIF and incubated at 37 °C with stirring at 100 rpm. Digestion was quenched with 0.2 mL of 0.2 M NaOH (for SGF) or 0.1 M HCl (for SIF) at predefined times. The nanoparticles were then isolated via centrifugation, redispersed in PBS (pH 7.4), and incubated for 2 h. The conformation of teriparatide following its release from nanoparticles was analyzed by CD spectroscopy to verify structural stability.

trypsin = test: Gastrointestinal stability in simulated intestinal fluid (SIF); format: in vitro ADME; settings: SIF pH 7.4, 20 μg/mL trypsin, 0.5 mg/mL teriparatide, 37 °C, 100 rpm; CD after release in PBS pH 7.4
Protocol: as §1

[1] = tested on: dexamethasone-induced osteoporosis rats; test: Serum bone-turnover biomarkers in dexamethasone-induced osteoporosis rats; format: in vivo, rat; settings: 8 weeks daily, oral EE/AC-Teri 16 mg/kg or sc teriparatide 0.04 mg/kg, n = 6
Protocol: The therapeutic effect of orally delivered EE/AC-Teri was examined in dexamethasone-induced osteoporosis rats under an Institutional Animal Care and Use committee (IACUC)-approved protocol (IACUC-2023-039-2). Male Sprague–Dawley rats (280–300 g) were randomly allocated to four groups (n = 6 each). The control group received a daily subcutaneous saline. In the osteoporotic model group, 0.1 mg/kg dexamethasone was administered subcutaneously each day to induce bone loss. The injectable teriparatide treatment group was given a combination of daily subcutaneous dexamethasone (0.1 mg/kg) and teriparatide (0.04 mg/kg). The final group was administered EE/AC-Teri orally (16 mg/kg of teriparatide), in combination with daily subcutaneous dexamethasone (0.1 mg/kg). After 8 week-treatment, blood was drawn for biochemical analysis. […] Serum osteocalcin (OCN), procollagen type I N-terminal propeptide (PINP), C-terminal telopeptide of type I collagen (CTx), tartrate-resistant acid phosphatase 5b (TRAP5b), and calcium were quantified with commercial ELISA kits (Thermo Fisher Scientific, Waltham, MA, USA) according to the manufacturer’s instructions. […] Quantitative parameters describing trabecular bone microarchitecture were assessed using Analyze software (ver 12.0; AnalyzeDirect, Overland Park, KS, USA).

[2] = tested on: dexamethasone-induced osteoporosis rats; test: Micro-CT and histology of femora in dexamethasone-induced osteoporosis rats; format: in vivo, rat
Protocol: The therapeutic effect of orally delivered EE/AC-Teri was examined in dexamethasone-induced osteoporosis rats under an Institutional Animal Care and Use committee (IACUC)-approved protocol (IACUC-2023-039-2). Male Sprague–Dawley rats (280–300 g) were randomly allocated to four groups (n = 6 each). The control group received a daily subcutaneous saline. In the osteoporotic model group, 0.1 mg/kg dexamethasone was administered subcutaneously each day to induce bone loss. The injectable teriparatide treatment group was given a combination of daily subcutaneous dexamethasone (0.1 mg/kg) and teriparatide (0.04 mg/kg). The final group was administered EE/AC-Teri orally (16 mg/kg of teriparatide), in combination with daily subcutaneous dexamethasone (0.1 mg/kg). After 8 week-treatment, blood was drawn for biochemical analysis. Blood (0.6 mL) was collected once on day 57 via the jugular vein under 1.5% isoflurane anesthesia in a Tabletop Anesthesia System (Harvard Apparatus, Cambridge, MA, USA). Serum osteocalcin (OCN), procollagen type I N-terminal propeptide (PINP), C-terminal telopeptide of type I collagen (CTx), tartrate-resistant acid phosphatase 5b (TRAP5b), and calcium were quantified with commercial ELISA kits (Thermo Fisher Scientific, Waltham, MA, USA) according to the manufacturer’s instructions. At study completion, animals were euthanized using a 30%/min displacement of chamber air with compressed CO2. Both femora were excised and fixed in 4% neutral-buffered formalin for 48 h. Fixed bones were processed for histological and structural analysis. Some samples were paraffin-embedded and sectioned for histological examination using hematoxylin and eosin (H&E) staining. The remaining specimens were subjected to structural evaluation via micro-computed tomography (micro-CT; the Korea Basic Science Institute). Images were acquired using a 90 kV/80 μA X-ray source over a 4 min acquisition time, with the scan field confined to 10 mm. Reconstructed images were generated at an isotropic voxel resolution of 20 μm. Quantitative parameters describing trabecular bone microarchitecture were assessed using Analyze software (ver 12.0; AnalyzeDirect, Overland Park, KS, USA).

[3] = 8 weeks daily, oral EE/AC-Teri 16 mg/kg or sc teriparatide 0.04 mg/kg, dexamethasone rats, femur

T1 sequence (P00791 60-385): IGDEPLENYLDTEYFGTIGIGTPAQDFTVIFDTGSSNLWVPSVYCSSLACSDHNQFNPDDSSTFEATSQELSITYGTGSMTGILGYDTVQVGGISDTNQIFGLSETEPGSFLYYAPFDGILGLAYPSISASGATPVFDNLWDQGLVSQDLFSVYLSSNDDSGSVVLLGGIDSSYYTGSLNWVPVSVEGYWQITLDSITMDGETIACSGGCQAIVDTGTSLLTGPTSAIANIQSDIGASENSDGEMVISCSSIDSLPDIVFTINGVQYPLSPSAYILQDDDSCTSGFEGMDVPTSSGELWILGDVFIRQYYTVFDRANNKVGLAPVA

Q: For `CC[C@H](C)[C@H](NC(=O)[C@H](CCC(=O)O)NC(=O)[C@H](CO)NC(=O)[C@@H](NC(=O)[C@@H](N)CO)C(C)C)C(=O)N[C@@H](CCC(N)=O)C(=O)N[C@@H](CC(C)C)C(=O)N[C@@H](CCSC)C(=O)N[C@@H](Cc1cnc[nH]1)C(=O)N[C@@H](CC(N)=O)C(=O)N[C@@H](CC(C)C)C(=O)NCC(=O)N[C@@H](CCCCN)C(=O)N[C@@H](Cc1cnc[nH]1)C(=O)N[C@@H](CC(C)C)C(=O)N[C@@H](CC(N)=O)C(=O)N[C@@H](CO)C(=O)N[C@@H](CCSC)C(=O)N[C@@H](CCC(=O)O)C(=O)N[C@@H](CCCN=C(N)N)C(=O)N[C@H](C(=O)N[C@@H](CCC(=O)O)C(=O)N[C@@H](Cc1c[nH]c2ccccc12)C(=O)N[C@@H](CC(C)C)C(=O)N[C@@H](CCCN=C(N)N)C(=O)N[C@@H](CCCCN)C(=O)N[C@@H](CCCCN)C(=O)N[C@@H](CC(C)C)C(=O)N[C@@H](CCC(N)=O)C(=O)N[C@@H](CC(=O)O)C(=O)N[C@H](C(=O)N[C@@H](Cc1cnc[nH]1)C(=O)N[C@@H](CC(N)=O)C(=O)N[C@@H](Cc1ccccc1)C(=O)O)C(C)C)C(C)C` [teriparatide], which “Conformational integrity of teriparatide in SGF (CD spectra)” value (pepsin) is on record?
A: The value was “pronounced conformational alterations in both SGF and SIF”.

Q: And the “Conformational integrity of teriparatide in SIF (CD spectra)” value (trypsin)?
A: Its value is “pronounced conformational alterations in both SGF and SIF”.

Q: What about the “Serum calcium / hypercalcemia” value [1] of the same compound?
A: Its value is “did not produce sustained hypercalcemia”.

Q: What about the “Trabecular architecture by histology (H&E)” value [2, 3] of the same compound?
A: Its value is “partially restored architecture”.

Q: And the “Trabecular architecture by micro-CT imaging” value [2, 3]?
A: Its value is “mitigated these lesions, preserving a denser, interconnected trabecular network”.

Q: And the “Bone mineral density (BMD)” value ([2]; micro-CT, 8 weeks, oral EE/AC-Teri 16 mg/kg or sc teriparatide 0.04 mg/kg, versus dexamethasone control, n = 6)?
A: Its value is “significantly restored”.

Q: What about the “Bone volume fraction (BV/TV)” value ([2]; micro-CT, 8 weeks, sc teriparatide 0.04 mg/kg, versus dexamethasone control, n = 6) of the same compound?
A: Its value is “significantly restored”.
